Experimental data taken from ChEMBL document CHEMBL3507680, “University of Dundee, Gates Library screen for HepG2 cell viability”.

Assay: Human HepG2 cell viability assay in 384 well format
Assay type: toxicity, cell-based
Set-up: dose 125 nL, time 70.5 hour; concentration not given beside the values
Conditions: HepG2 cells, read-out: Inhibition

| SMILES | cytotoxicity at 70.5 h [%] |
| --- | --- |
| Cc1ccc(N2CCCc3sc(C(=O)NCCO)nc32)nn1 | -1.7 |
| Cc1ccc(S(N)(=O)=O)cc1C(=O)NC1CCCN(C)C1 (stereo not given) | 1.47 |
| O=C(c1cscn1)N1CC[C@@H]2[C@@H]1CCN2c1ccccn1 | -2.32 |
| NC(=O)c1ccc(N2CCN(Cc3ccc(F)cc3Cl)CC2)nn1 | -9.22 |
| CC(C)Cc1ncc2c(n1)CN(c1cc(N3CCCC3)nc(N)n1)C2 | 1.59 |
| CCCS(=O)(=O)N1CCN(c2cc(-n3nc(C)cc3C)nc(C)n2)CC1 | -10.3 |
| COCCN(Cc1cnn(C)c1)C(=O)C1COc2c(cccc2OC)C1 (stereo not given) | 0.35 |
| CCCOc1ccc(Cl)cc1C(=O)N1CCC(n2cncn2)CC1 | 17.2 |
| CN(C)C(C(=O)NCC1(O)CCCCC1)c1c(F)cccc1F (stereo not given) | -13 |
| COc1ccc(Cc2cccc(C3CCN(C)CC3)n2)cc1 | -6.68 |
| COc1ccc(CCn2cnnc2[S+](C)[O-])cc1 (stereo not given) | -10 |
| COCC1CN(S(=O)(=O)Cc2ccccc2)Cc2c1cnn2C (stereo not given) | -1.14 |
| CC(C)N(C)Cc1cn2c(n1)CN(C(=O)Cc1ccccc1)CC2 | -2.24 |
| Cc1cc(C(=O)N2CCC[C@]3(C[C@@H](OCC4CC4)CO3)C2)no1 | -11.6 |
| CN1CCN(Cc2cn3c(n2)CN(Cc2cccc(F)c2)CC3)CC1 | -11.9 |
| CN(CCCc1cnn(C)c1)Cc1cc2n(n1)CCNC2 | -4.75 |
| CCOc1cccc(CSC(C)c2nc(C)no2)n1 (stereo not given) | -3.8 |
| Cc1c(C2c3nc[nH]c3CCN2CCOCc2ccccc2)cnn1C (stereo not given) | -10.4 |
| Cc1cc(C)n(CC2CCCN2C(=O)c2ccc3c(c2)nnn3C)n1 (stereo not given) | 1.66 |
| CO[C@H]1CO[C@@]2(CCCN(C(=O)C3CC=CC3)C2)C1 | -0.276 |
| O=C(NCCCOCC1CC1)Nc1ccc(F)cc1 | 0.857 |
| CCNc1nc(C)c(C(=O)N(C)Cc2nc(-c3ccncc3)no2)s1 | 1.19 |
| Cc1cc(Oc2ccc(NC(=O)C3CC3)cc2)cc(C2CCNCC2)n1 | -4.04 |

| SMILES | cytotoxicity at 70.5 h [%] |
| --- | --- |
| CCn1nc(C)cc1C(=O)N1C[C@@H]2C[C@@H](c3nc(C)cs3)O[C@@H]2C1 | -2.46 |
| Cc1nn(C)c2c(N3CCN(C(=O)C4CCC4)CC3)ncnc12 | -5.94 |
| O=C(c1ccc[nH]1)N1CCCn2c(CNC3CCC3)nnc2C1 | -4.17 |
| CNc1cccc(C2CCCN(C(=O)Cc3ccccc3)C2)n1 (stereo not given) | -7.78 |
| CN(CCCOc1ccccc1Cl)C(=O)CN1CCNC1=O | -1.34 |
| O=c1c2ccccc2nc2n1C(CSc1ccc(F)cc1)CN2 (stereo not given) | 28.4 |
| CNC(=O)[C@@H]1C[C@H]2CN(Cc3csc(C)n3)C[C@H]2N1C(C)C | -4.84 |
| O=C(Nc1cccc(CNCc2cccs2)c1)C1CC1 | -8.51 |
| CC(C)c1n[nH]c(C2CN(Cc3ncc[nH]3)CCO2)n1 (stereo not given) | 35.2 |
| Clc1snnc1CN1CCCC1Cn1cccn1 (stereo not given) | -1.24 |
| Cc1cc(CN(C)C(=O)NC(C)c2nncn2C)no1 (stereo not given) | -5.64 |
| COc1cccc2c1OCC(CNC(=O)Cn1ccnc1C)C2 (stereo not given) | -0.227 |
| CNC(=O)C1CN(C(=O)COc2ccccc2)Cc2cn(C)nc21 (stereo not given) | -3.29 |
| Cc1cccc(OCCNC(=O)C(C)S(=O)(=O)c2ccccn2)c1 (stereo not given) | -2.85 |
| Cc1cc(CNC(=O)c2ccno2)c(C)o1 | -7.21 |
| Cc1ccc(S(=O)(=O)NCCCN2CCC(O)CC2)c(F)c1 | 18.4 |
| Clc1cc(CN2CCCN3CCCC3C2)c2ncccc2c1 (stereo not given) | -2.91 |
| Cc1cc(C)c(-c2nc(-c3c(C)ncc4c3CCNC4)no2)o1 | -11.5 |
| Cc1cc(C)n(CC2CCCCN2C(=O)CCc2ccncc2)n1 (stereo not given) | -0.893 |
| Cn1nc(CN2CCCN(C3CCCC3)CC2)c2c(Cl)cccc21 | -6.04 |
| Cc1ccccc1C(=O)N1CCCn2cnc(CN3CCCC3=O)c2C1 | -4.3 |
| COCCC(C)NC(=O)N1CCSC(C)(C)C1 (stereo not given) | -10.1 |
| NC(=O)c1nc(-c2ccc(Cl)cc2Cl)oc1N | -3.66 |

| SMILES | cytotoxicity at 70.5 h [%] |
| --- | --- |
| Cc1nc2ccnn2c(C)c1CCC(=O)N1CCN(CCO)CC1 | -9.84 |
| Cc1nc(CN2CCCC(N(C)Cc3nccn3C)C2)no1 (stereo not given) | 21.6 |
| Cc1cc(Br)c(O)c(C(=O)N2CCC(CN3CCCCCC3)CC2)c1 | -5.82 |
| CC(C)CN1CCC2(COCc3cnc(-c4ccccc4)nc32)C1 (stereo not given) | -3.09 |
| CN(CC(=O)NS(=O)(=O)c1ccsc1)Cc1ccccc1 | -6.37 |
| CCS(=O)(=O)c1ccc(NCc2csc(C(C)C)n2)cc1 | 4.81 |
| CCc1nnc(CN2CCCC2Cn2cc(C)cn2)o1 (stereo not given) | 17.8 |
| CN(C)S(=O)(=O)N1CCN(Cc2ccnc(N3CCCC3)n2)CC1 | -1.31 |
| CC(C)OCCS(=O)(=O)c1nccn1-c1cccc(F)c1 | -9.1 |
| Cc1nn(C)c2c(NCCn3cccn3)ncnc12 | 5.55 |
| CC(C)n1ncc2c1NC(=O)CC21C(=O)Nc2c(Cl)cccc21 (stereo not given) | -5.46 |
| CNc1nc(C2CCCN(C(=O)C(C)C)C2)nc2c1CN(C)CC2 (stereo not given) | 9.57 |
| CNS(=O)(=O)c1ccc(CN2CCCN(Cc3ccncc3)CC2)cc1 | 16.9 |
| O=C(CCn1cncn1)N1CCC2(CC1)[C@H](O)C[C@@H]2OCCO | 0.165 |
| Cc1ccc(-n2cc(CN3CCN(C)[C@@H]4CS(=O)(=O)C[C@@H]43)cn2)cc1 | -5.8 |
| Cc1oncc1C(=O)NCC(c1ccccc1Cl)N1CCOCC1 (stereo not given) | -3.09 |
| Cc1ccc(C(C)NC(=O)CCc2cnn(C)c2)cc1F (stereo not given) | -8.21 |
| Cn1nc(C(=O)N2CCCC2)c(F)c1NC(=O)Cc1ccccc1 | 28.2 |
| COc1cccc(C(C(=O)O)N2CCC(Cn3cccn3)CC2)c1OC (stereo not given) | -9.71 |
| Cc1cc(F)ccc1NC(=O)NCC(C)N1CCOCC1 (stereo not given) | 32.7 |
| CN1CCCC(N(C)S(=O)(=O)c2cccc3ncccc23)C1 (stereo not given) | -1.85 |
| CC(C)(C)c1ncc(CNc2ccn(CCc3ccncc3)n2)s1 | -10.2 |
| CC(Cn1cc(Br)cn1)C(=O)Nc1ccncc1 (stereo not given) | 6.88 |

| SMILES | cytotoxicity at 70.5 h [%] |
| --- | --- |
| CCCc1ccc(CN2CCC3(CCC(=O)N(C(C)C(=O)O)C3)CC2)o1 (stereo not given) | -4.9 |
| Cc1ncccc1CNCC1CCN(CC(O)c2ccccc2)CC1 (stereo not given) | -1.3 |
| Cc1ccc(N2CCCc3sc(C(=O)NCc4ccncc4)nc32)nn1 | -1.89 |
| Cc1c[nH]cc1C(=O)N1CCN(CCc2cccs2)CC1 | -5.85 |
| COc1cccc(C2C3=C(COC3=O)Nc3[nH]nc(C)c32)c1O (stereo not given) | -3.51 |
| O=C(NCc1nnc2n1C(C(=O)NC1CC1)CC2)c1ccc(Cl)cc1Cl (stereo not given) | 4.24 |
| CC(=O)N(CCc1nc(-c2cc(C(N)=O)oc2C)cs1)C(C)C | -8.28 |
| O=C(c1ccccn1)N1C[C@@H]2OCC(=O)N(CC3CCCCC3)[C@@H]2C1 | -6.75 |
| CN1CCC(c2cncc(N(C)C)n2)CC1 | -4.58 |
| CC(C)NC(=O)[C@@H]1C[C@H]2NCC[C@H]2O1 | -7.3 |
| Cc1ccc(N2CCN(C(=O)C3CN(C)C(=O)N3)CC2=O)cc1 (stereo not given) | 3.04 |
| CCOCC1CN(S(=O)(=O)C2CC2)Cc2ncn(CC3CC3)c21 (stereo not given) | -4.92 |
| CCc1ccc(CNC(=O)CCc2nnc(-c3ccc(C)s3)o2)nc1 | -3.31 |
| Cc1cnn(CC2CN(Cc3nc4ccccc4s3)CCO2)c1 (stereo not given) | -4.94 |
| CCOCCN1C[C@@H]2CCCO[C@@H]2[C@H](NC(=O)c2cnoc2C)C1 | -6.18 |
| CS(=O)(=O)CCSCc1ccc(Br)c(F)c1 | -1.55 |
| CCCn1nc(C(=O)N(C)Cc2nnc3n2CCC3)ccc1=O | -6.95 |
| O=C1CC2(CCN(c3nncs3)C2)CN1c1cncnc1 (stereo not given) | -0.39 |
| N#CC1(c2ccccc2)CCN(C(=O)CN2C(=O)CCNC2=O)CC1 | -0.486 |
| CCOC[C@@H]1CCC[C@@]12CN(Cc1cccnc1)CCO2 | -5.78 |
| COCCN(C)c1ccc(NCc2ccsc2)nc1 | -10.2 |
| O=C(NCCNc1cccnc1)C(c1cccnc1)N1CCCC1 (stereo not given) | -9.35 |
| CCn1cnnc1CNC(=O)N1CCN(Cc2ccccc2)CC1 | -1.29 |

| SMILES | cytotoxicity at 70.5 h [%] |
| --- | --- |
| COc1cccc(CC2CN(C3CCCCC3)CCO2)c1 (stereo not given) | 25.1 |
| Cc1nc(CC(C)C)sc1C(=O)N1CCC(C2(C)OCCO2)CC1 | 2.11 |
| CN(C)CC1CN(C(=O)Cc2ccccc2)Cc2nccn2C1 (stereo not given) | 24 |
| COC(=O)c1sc2cccc(F)c2c1CNC(=O)C1CC1 | 1.14 |
| CC(C)c1nc(CC(=O)N(C)Cc2ccc3c(c2)OCO3)cs1 | -6.29 |
| Cc1ccc(N2CCN(c3ccccc3C)CC2C)nn1 (stereo not given) | -0.203 |
| Cc1ncccc1NC(=O)[C@H]1C[C@@H]2CCN(Cc3nccs3)C[C@@H]2O1 | -2.41 |
| Cn1cc(C(=O)NCCCN2CCCCCC2=O)c(-c2cccnc2)n1 | 11 |
| Cn1c(SCC(O)COCc2ccc(Cl)cc2)nnc1C1CC1 (stereo not given) | -3.52 |
| Cc1nc(CCN2CCC(Oc3ccccc3F)CC2)c(C)s1 | 8.34 |
| COCCC1COC2(CCN(C(=O)C3CCC3)CC2)C1 (stereo not given) | -3.7 |
| CCC1CNCc2cc3c(OC)ccc(OC)c3nc2O1 (stereo not given) | 12.3 |
| COCc1noc(C2(c3cccc(Cl)c3)CCOCC2)n1 | 26.5 |
| CC(C)N(C(=O)c1csc(-c2ccoc2)n1)C1CCOCC1 | -10.2 |
| Cc1cccc(OC2CN(C(=O)C3CC(=O)N(C4CC4)C3)C2)c1 (stereo not given) | 4.04 |
| CNc1cc(C)nc(C2COCCN2CCc2ccccc2)n1 (stereo not given) | -1.48 |
| CN(CCOc1cccc(F)c1)Cc1nc2c(cnn2C)c(=O)[nH]1 | -8.53 |
| COc1cccc(CC(=O)N2CCC(Cc3nnc(SC)n3C)CC2)c1 | -23.6 |
| CCn1nnc(NCc2cc(Br)cc(Br)c2OC)n1 | -18.9 |
| CN(CCOc1cccc(F)c1)CC(=O)Nc1ccncc1 | -10.9 |
| Cc1ccc(OCC2CCCN(c3cc(C(N)=O)ccn3)C2)cc1 (stereo not given) | 4.54 |
| CN(CC1CCN(CCO)CC1)CC(O)c1ccc(F)cc1F (stereo not given) | -3.94 |
| COCCNC(=O)NCc1cc(-c2ccncc2)n(C2CCCC2)n1 | -13.6 |
